Legend:
barnyard grass [1] = test: Test Example 3: herbicidal effect by foliage application, Wagner pot (Table 18, symbol H); assay type: in vivo, barnyard grass (Echinochloa crus-galli)
In short: (§1)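 Plants were sown in alluvial soil held under 0.1–0.5 cm standing water and grown 14 days in a greenhouse at 25–30 °C. An emulsifiable formulation, water-diluted to the set dose, was then sprayed onto the foliage, and effects were scored three weeks later using previously defined criteria.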

Chinese sprangletop = test: Test Example 3: herbicidal effect by foliage application, Wagner pot (Table 18, symbol D); assay type: in vivo, chinese sprangletop (Leptochloa chinensis)
In short: as §1

rice flat sedge = test: Test Example 3: herbicidal effect by foliage application, Wagner pot (Table 18, symbol E); assay type: in vivo, rice flat sedge (Cyperus iria)
In short: as §1

southern crabgrass [2] = test: Test Example 4: herbicidal effect by soil treatment (Table 19, symbol F); assay type: in vivo, southern crabgrass (Digitaria ciliaris)
In short: (§2)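 Applied as a water-diluted emulsion, the compound was sprayed onto soil covering newly sown seeds. Evaluation came three weeks after application, in a greenhouse held at 25° C. to 30° C.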

green foxtail [3] = test: Test Example 4: herbicidal effect by soil treatment (Table 19, symbol G); assay type: in vivo, green foxtail (Setaria viridis)
In short: as §2

barnyard grass [4] = test: Test Example 4: herbicidal effect by soil treatment (Table 19, symbol H); assay type: in vivo, barnyard grass (Echinochloa crus-galli)
In short: as §2

wild oat [5] = test: Test Example 4: herbicidal effect by soil treatment (Table 19, symbol I); assay type: in vivo, wild oat (Avena fatua)
In short: as §2

blackgrass [6] = test: Test Example 4: herbicidal effect by soil treatment (Table 19, symbol J); assay type: in vivo, blackgrass (Alopecurus myosuroides)
In short: as §2

Italian ryegrass [7] = test: Test Example 4: herbicidal effect by soil treatment (Table 19, symbol K); assay type: in vivo, Italian ryegrass (Lolium multiflorum)
In short: as §2

windgrass [8] = test: Test Example 4: herbicidal effect by soil treatment (Table 19, symbol L); assay type: in vivo, windgrass (Apera spica-venti)
In short: as §2

velvetleaf [9] = test: Test Example 4: herbicidal effect by soil treatment (Table 19, symbol M); assay type: in vivo, velvetleaf (Abutilon theophrasti)
In short: as §2

redroot pigweed [10] = test: Test Example 4: herbicidal effect by soil treatment (Table 19, symbol N); assay type: in vivo, redroot pigweed (Amaranthus retroflexus)
In short: as §2

lambsquarters [11] = test: Test Example 4: herbicidal effect by soil treatment (Table 19, symbol O); assay type: in vivo, lambsquarters (Chenopodium album)
In short: as §2

chickweed [12] = test: Test Example 4: herbicidal effect by soil treatment (Table 19, symbol P); assay type: in vivo, common chickweed (Stellaria media)
In short: as §2

persian speedwell [13] = test: Test Example 4: herbicidal effect by soil treatment (Table 19, symbol R); assay type: in vivo, Persian speedwell (Veronica persica)
In short: as §2

southern crabgrass [14] = test: Test Example 5: herbicidal effect by foliage application, plastic box (Table 20, symbol F); assay type: in vivo, southern crabgrass (Digitaria ciliaris); conditions: foliage application
In short: (§3)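 Sow seeds spot-wise in sterilized diluvial soil; cover with ~1.5 cm soil. Grow 14 days in greenhouse, 25° C. to 30° C. Spray foliage with emulsion diluted to predetermined amount. Rate effect after 3 weeks.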

green foxtail [15] = test: Test Example 5: herbicidal effect by foliage application, plastic box (Table 20, symbol G); assay type: in vivo, green foxtail (Setaria viridis); conditions: foliage application
In short: as §3

barnyard grass [16] = test: Test Example 5: herbicidal effect by foliage application, plastic box (Table 20, symbol H); assay type: in vivo, barnyard grass (Echinochloa crus-galli); conditions: foliage application
In short: as §3

wild oat [17] = test: Test Example 5: herbicidal effect by foliage application, plastic box (Table 20, symbol I); assay type: in vivo, wild oat (Avena fatua); conditions: foliage application
In short: as §3

blackgrass [18] = test: Test Example 5: herbicidal effect by foliage application, plastic box (Table 20, symbol J); assay type: in vivo, blackgrass (Alopecurus myosuroides); conditions: foliage application
In short: as §3

Italian ryegrass [19] = test: Test Example 5: herbicidal effect by foliage application, plastic box (Table 20, symbol K); assay type: in vivo, Italian ryegrass (Lolium multiflorum); conditions: foliage application
In short: as §3

windgrass [20] = test: Test Example 5: herbicidal effect by foliage application, plastic box (Table 20, symbol L); assay type: in vivo, windgrass (Apera spica-venti); conditions: foliage application
In short: as §3

velvetleaf [21] = test: Test Example 5: herbicidal effect by foliage application, plastic box (Table 20, symbol M); assay type: in vivo, velvetleaf (Abutilon theophrasti); conditions: foliage application
In short: as §3

redroot pigweed [22] = test: Test Example 5: herbicidal effect by foliage application, plastic box (Table 20, symbol N); assay type: in vivo, redroot pigweed (Amaranthus retroflexus); conditions: foliage application
In short: as §3

lambsquarters [23] = test: Test Example 5: herbicidal effect by foliage application, plastic box (Table 20, symbol O); assay type: in vivo, lambsquarters (Chenopodium album); conditions: foliage application
In short: as §3

chickweed [24] = test: Test Example 5: herbicidal effect by foliage application, plastic box (Table 20, symbol P); assay type: in vivo, common chickweed (Stellaria media); conditions: foliage application
In short: as §3

persian speedwell [25] = test: Test Example 5: herbicidal effect by foliage application, plastic box (Table 20, symbol R); assay type: in vivo, Persian speedwell (Veronica persica); conditions: foliage application
In short: as §3

[26] = 320 g/ha, evaluated three weeks after application
[27] = amount of applied herbicide 80 g/ha
[28] = 80 g/ha, three weeks after application

Cc1nn(C)c(=O)c(-c2c(-c3ccc(OCC#N)cc3)sc3ccc(F)cc23)c1O [2-066]
herbicidal effect on H (barnyard grass), rating 0-5 (barnyard grass [1]; 320 g/ha): 4 (Herbicidal rate of 70% or more and less than 90%) | herbicidal effect on D (Chinese sprangletop), rating 0-5 (Chinese sprangletop; 320 g/ha): 3 (Herbicidal rate of 40% or more and less than 70%) | herbicidal effect on E (rice flat sedge), rating 0-5 (rice flat sedge; 320 g/ha): 1 (Herbicidal rate of 5% or more and less than 20%) | herbicidal effect rating, F: southern crabgrass (southern crabgrass [2]; 320 g/ha): 0 (Herbicidal rate of 5% or less (almost no effect)) | herbicidal effect rating, G: green foxtail (green foxtail [3]; 320 g/ha): 0 (Herbicidal rate of 5% or less (almost no effect)) | herbicidal effect rating, H: barnyard grass (barnyard grass [4]; 320 g/ha): 0 (Herbicidal rate of 5% or less (almost no effect)) | herbicidal effect rating, I: wild oat (wild oat [5]; 320 g/ha): 0 (Herbicidal rate of 5% or less (almost no effect)) | herbicidal effect rating, J: blackgrass (blackgrass [6]; 320 g/ha): 0 (Herbicidal rate of 5% or less (almost no effect)) | herbicidal effect rating, K: Italian ryegrass (Italian ryegrass [7]; 320 g/ha): 0 (Herbicidal rate of 5% or less (almost no effect)) | herbicidal effect rating, L: windgrass (windgrass [8]; 320 g/ha): 0 (Herbicidal rate of 5% or less (almost no effect)) | herbicidal effect rating, M: velvetleaf (velvetleaf [9]; 320 g/ha): 0 (Herbicidal rate of 5% or less (almost no effect)) | herbicidal effect rating, N: redroot pigweed (redroot pigweed [10]; 320 g/ha): 0 (Herbicidal rate of 5% or less (almost no effect)) | herbicidal effect rating, O: lambsquarters (lambsquarters [11]; 320 g/ha): 0 (Herbicidal rate of 5% or less (almost no effect)) | herbicidal effect rating, P: chickweed (chickweed [12]; 320 g/ha): 4 (Herbicidal rate of 70% or more and less than 90%) | herbicidal effect rating, R: persian speedwell (persian speedwell [13]; 320 g/ha): 4 (Herbicidal rate of 70% or more and less than 90%) | herbicidal effect on F: southern crabgrass (southern crabgrass [14]; [26]): 3 (Herbicidal rate of 40% or more and less than 70%) | herbicidal effect on G: green foxtail (green foxtail [15]; [26]): 4 (Herbicidal rate of 70% or more and less than 90%) | herbicidal effect on H: barnyard grass (barnyard grass [16]; [26]): 2 (Herbicidal rate of 20% or more and less than 40%) | herbicidal effect on I: wild oat (wild oat [17]; [26]): 0 (Herbicidal rate of 5% or less (almost no effect)) | herbicidal effect on J: blackgrass (blackgrass [18]; [26]): 0 (Herbicidal rate of 5% or less (almost no effect)) | herbicidal effect on K: Italian ryegrass (Italian ryegrass [19]; [26]): 1 (Herbicidal rate of 5% or more and less than 20%) | herbicidal effect on L: windgrass (windgrass [20]; [26]): 0 (Herbicidal rate of 5% or less (almost no effect)) | herbicidal effect on M: velvetleaf (velvetleaf [21]; [26]): 3 (Herbicidal rate of 40% or more and less than 70%) | herbicidal effect on N: redroot pigweed (redroot pigweed [22]; [26]): 5 (Herbicidal rate of 90% or more (almost completely withered)) | herbicidal effect on O: lambsquarters (lambsquarters [23]; [26]): 4 (Herbicidal rate of 70% or more and less than 90%) | herbicidal effect on P: chickweed (chickweed [24]; [26]): 5 (Herbicidal rate of 90% or more (almost completely withered)) | herbicidal effect on R: persian speedwell (persian speedwell [25]; [26]): 5 (Herbicidal rate of 90% or more (almost completely withered))

CCc1nn(C)c(=O)c(-c2c(-c3ccc(C(F)(F)F)cc3)sc3ccc(F)cc23)c1O [2-410]
herbicidal effect on H: barnyard grass (barnyard grass [1]; [27]): 4 (Herbicidal rate of 70% or more and less than 90%) | herbicidal effect on D: Chinese sprangletop (Chinese sprangletop; [27]): 0 (Herbicidal rate of 5% or less (almost no effect)) | herbicidal effect on E: rice flat sedge (rice flat sedge; [27]): 1 (Herbicidal rate of 5% or more and less than 20%) | herbicidal effect, F: southern crabgrass (southern crabgrass [2]; [27]): 0 (Herbicidal rate of 5% or less (almost no effect)) | herbicidal effect, G: green foxtail (green foxtail [3]; [27]): 1 (Herbicidal rate of 5% or more and less than 20%) | herbicidal effect, H: barnyard grass (barnyard grass [4]; [27]): 0 (Herbicidal rate of 5% or less (almost no effect)) | herbicidal effect, I: wild oat (wild oat [5]; [27]): 0 (Herbicidal rate of 5% or less (almost no effect)) | herbicidal effect, J: blackgrass (blackgrass [6]; [27]): 0 (Herbicidal rate of 5% or less (almost no effect)) | herbicidal effect, K: Italian ryegrass (Italian ryegrass [7]; [27]): 0 (Herbicidal rate of 5% or less (almost no effect)) | herbicidal effect, L: windgrass (windgrass [8]; [27]): 0 (Herbicidal rate of 5% or less (almost no effect)) | herbicidal effect, M: velvetleaf (velvetleaf [9]; [27]): 0 (Herbicidal rate of 5% or less (almost no effect)) | herbicidal effect, N: redroot pigweed (redroot pigweed [10]; [27]): 3 (Herbicidal rate of 40% or more and less than 70%) | herbicidal effect, O: lambsquarters (lambsquarters [11]; [27]): 1 (Herbicidal rate of 5% or more and less than 20%) | herbicidal effect, P: chickweed (chickweed [12]; [27]): 0 (Herbicidal rate of 5% or less (almost no effect)) | herbicidal effect, R: persian speedwell (persian speedwell [13]; [27]): 0 (Herbicidal rate of 5% or less (almost no effect)) | F: southern crabgrass, herbicidal effect grade (southern crabgrass [14]; [28]): 0 (Herbicidal rate of 5% or less (almost no effect)) | G: green foxtail, herbicidal effect grade (green foxtail [15]; [28]): 2 (Herbicidal rate of 20% or more and less than 40%) | H: barnyard grass, herbicidal effect grade (barnyard grass [16]; [28]): 3 (Herbicidal rate of 40% or more and less than 70%) | I: wild oat, herbicidal effect grade (wild oat [17]; [28]): 0 (Herbicidal rate of 5% or less (almost no effect)) | J: blackgrass, herbicidal effect grade (blackgrass [18]; [28]): 0 (Herbicidal rate of 5% or less (almost no effect)) | K: Italian ryegrass, herbicidal effect grade (Italian ryegrass [19]; [28]): 0 (Herbicidal rate of 5% or less (almost no effect)) | L: windgrass, herbicidal effect grade (windgrass [20]; [28]): 0 (Herbicidal rate of 5% or less (almost no effect)) | M: velvetleaf, herbicidal effect grade (velvetleaf [21]; [28]): 1 (Herbicidal rate of 5% or more and less than 20%) | N: redroot pigweed, herbicidal effect grade (redroot pigweed [22]; [28]): 3 (Herbicidal rate of 40% or more and less than 70%) | O: lambsquarters, herbicidal effect grade (lambsquarters [23]; [28]): 3 (Herbicidal rate of 40% or more and less than 70%) | P: chickweed, herbicidal effect grade (chickweed [24]; [28]): 4 (Herbicidal rate of 70% or more and less than 90%) | R: persian speedwell, herbicidal effect grade (persian speedwell [25]; [28]): 4 (Herbicidal rate of 70% or more and less than 90%)
